# Laboratory results taken from paper PMC9963887, “Towards Radiolabeled EGFR-Specific Peptides: Alternatives to GE11” (Pharmaceuticals, 2023).
# Tested on: EGFR-positive A431 cells
# Assay: cell uptake / internalization studies on A431 cells
# Assay type: cell-based, human
# Conditions: 1 h incubation
# Description: The cellular uptake was differentiated by membrane-bound and internalized activity. In these experiments, no EGFR-specific interaction of any of the radiolabeled agents [^68Ga]Ga-1–[^68Ga]Ga-11 was observed (Figure 5).
# Internalization studies of [^68Ga]Ga-1–[^68Ga]Ga-11 on A431 cells. For this purpose, the A431 cells (10^6 per well) were seeded into 24-well cell culture multiwell plates (cellstar) and incubated for 2 days at 37 °C in a humidified CO2 (5%) atmosphere. Directly before the experiment, each well was washed twice with fresh internalization medium (PBS/DMEM, high glucose, 1/99, v/v), followed by the addition of internalization medium to a final volume of 1.35 mL per well. […] Afterwards, the medium was separated from the cells and each well was washed twice with 1 mL of ice-cold internalization medium, the washing solutions were added to the collected internalization medium and measured in a γ-counter (these combined solutions contain the unbound fraction). To determine the surface-bound fraction, each well was further incubated twice for 5 min with ice-cold glycine-buffer (pH 2.8, 0.05 M, 1 mL) and the supernatants were collected and measured. The internalized fraction was determined by lysing the cells twice for 5 min with sodium hydroxide solution (2 M, 1 mL), collection and measurement of the combined solutions. […]
substance,measurement,setting,value
"[^125I]I-hEGF: ^125I-labeled hEGF from PerkinElmer, reference compound in cell uptake and competitor in displacement assays","activity, internalized + bound to membrane, blocked (overall cellular uptake under blocking)",blocking with 100-fold excess hEGF,1.9%
same,"activity, internalized + bound to membrane, unblocked (overall cellular uptake)",non-blocking conditions,33.6%
